Source: patent publication US9469645B2, “Compounds and compositions for the treatment of parasitic diseases” (Novartis AG, priority 2009, dated 2016)

Key:
3D7 P. falciparum strain = test: parasite proliferation assay in infected red blood cells (SYBR Green I); assay type: cell-based, Plasmodium falciparum; conditions: Plasmodium falciparum, 3D7, Erythrocyte, 3D7 strain; read-out: EC50 3D7 strain
How it was run: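 P. falciparum 3D7 grown in O+ human erythrocytes to 3–8% parasitemia and exposed to compounds. Proliferation read as the increase in parasite DNA. Detection used SYBR Green I in saponin/triton-X/EDTA lysis buffer, with overnight lysis at room temperature.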

W2 strain [1] = test: parasite proliferation assay in infected red blood cells (SYBR Green I), W2 strain; assay type: cell-based; conditions: Erythrocyte
Text: (§1) Compounds of the invention can be assayed to measure their capacity to inhibit proliferation of parasitemia in infected red blood cells. The proliferation is quantified by the addition of SYBR Green I (INVITROGEN)® dye which has a high affinity for double stranded DNA.

[2] = tested on: Trypanosoma brucei Lister 427 strain; test: Trypanosoma brucei proliferation assay (Cell Titer Glo); assay type: cell-based; conditions: Lister 427 bloodstream form, 48 hours, read-out: EC50, proliferation of T. brucei
Text: Compounds of the invention can be assayed to measure their capacity to inhibit proliferation of kinetoplastid parasite Trypanosoma brucei. The proliferation is quantified by the addition of Cell Titer Glo (Promega®) a luminescent cell viability assay that measures the number of viable cells in culture based on the quantification of cellular ATP amount, which is an indicator of metabolically active cells.
The following assay illustrates the invention without in any way limiting the scope of the invention. This parasite proliferation assay measures the increase in parasite growth using an assay that measures ATP activity, Cell Titer Glo®.
Trypanosoma brucei Lister 427 strain is grown in HMI-9 Trypanosome media for T. brucei bloodstream form. 30 μl of HMI-9 media is dispensed into 384 well assay plates. 200 nl of compounds of the invention (in DMSO), including anti-trypanosome controls (Pentamidine and suramin), are then transferred into the assay plates, as well as DMSO alone to serve as a negative control for inhibition. Then 25 μl of a suspension of T. brucei culture in HMI-9 media is dispensed into the assay plates. The final concentration of parasites in culture corresponds to 1.7% of 0.5 uM ATP activity with Cell Titer Glo® in HMI-9 media. […] The plates are then read for luminescence.

[3] = target: cannabinoid receptor 1 (CB1) (Homo sapiens, UniProt P21554); test: cannabinoid receptor 1 (CB1) IC50; assay type: binding; conditions: read-out: IC50 against CB1
cannabinoid receptor 1 (CB1), sequence (P21554 whole entry, species assumed): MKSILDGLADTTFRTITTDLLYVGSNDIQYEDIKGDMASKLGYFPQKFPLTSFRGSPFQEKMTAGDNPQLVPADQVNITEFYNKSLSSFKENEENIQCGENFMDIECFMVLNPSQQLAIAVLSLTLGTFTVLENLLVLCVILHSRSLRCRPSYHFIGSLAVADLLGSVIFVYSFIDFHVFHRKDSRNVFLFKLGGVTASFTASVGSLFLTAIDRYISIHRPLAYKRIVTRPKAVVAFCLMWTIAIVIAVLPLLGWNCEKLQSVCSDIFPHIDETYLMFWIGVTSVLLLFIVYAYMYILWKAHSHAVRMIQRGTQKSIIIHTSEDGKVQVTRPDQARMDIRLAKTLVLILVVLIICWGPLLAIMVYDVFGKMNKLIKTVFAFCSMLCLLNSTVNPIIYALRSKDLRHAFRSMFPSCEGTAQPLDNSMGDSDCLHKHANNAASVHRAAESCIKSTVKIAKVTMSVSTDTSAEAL

[4] = target: mitogen-activated protein kinase-activated protein kinase 2 (MapKap2 or MK-2) (Homo sapiens, UniProt P49137); test: MK-2 enzyme inhibition, single point concentration; assay type: biochemical
mitogen-activated protein kinase-activated protein kinase 2 (MapKap2 or MK-2), sequence (P49137 whole entry): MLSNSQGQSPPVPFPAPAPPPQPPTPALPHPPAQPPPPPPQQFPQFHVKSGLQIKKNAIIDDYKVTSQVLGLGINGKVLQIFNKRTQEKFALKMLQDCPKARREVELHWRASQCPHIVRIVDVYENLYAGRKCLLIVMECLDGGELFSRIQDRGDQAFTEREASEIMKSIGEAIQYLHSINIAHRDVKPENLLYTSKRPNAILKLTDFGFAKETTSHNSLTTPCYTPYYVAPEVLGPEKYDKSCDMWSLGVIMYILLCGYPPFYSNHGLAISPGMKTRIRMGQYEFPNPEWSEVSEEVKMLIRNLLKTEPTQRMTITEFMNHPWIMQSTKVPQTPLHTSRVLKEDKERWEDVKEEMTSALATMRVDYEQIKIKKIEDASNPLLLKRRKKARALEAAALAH

W2 strain [5] = test: parasite proliferation assay in infected red blood cells (SYBR Green I), W2 strain; assay type: cell-based, Plasmodium falciparum; conditions: Plasmodium falciparum, Erythrocyte
Text: as §1

Row | SMILES | EC50 (3D7 P. falciparum strain) | EC50 (W2 strain [1]) | EC50 [2] | IC50 [3] | inhibition of MK-2 [4] | EC50 (W2 strain [5])
1 | CC(C)(N)C(=O)N1CCn2c(nc(-c3ccc(F)cc3)c2Nc2ccc(F)c(F)c2)C1 [Example 29, 2-amino-1-(3-(3,4-difluorophenylamino)-2-(4-fluorophenyl)-5,6-dihydroimidazo[1,2-a]pyrazin-7(8H)-yl)-2-methylpropan-1-one] | 30 nM | 36 nM | 7000 nM | > 30000 nM | 15% | 
2 | CC1(C)c2nc(-c3ccc(F)cc3)c(Nc3ccc(F)cc3)n2CCN1C(=O)CN [example 412, 2-amino-1-(2-(4-fluorophenyl)-3-(4-fluorophenylamino)-8,8-dimethyl-5,6-dihydroimidazo[1,2-a]pyrazin-7(8H)-yl)ethanone] | 10 nM |  | 10000 nM | 24000 nM | 7% | 6 nM
